Measured values as given in ChEMBL document CHEMBL1201862, “PubChem BioAssay data set” (2004).
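The compound was tested at five concentrations on cells cultured in 96-well plates, with a 48-hour exposure period. GI50 marks 50% less growth.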 Calls of active or inactive are those of the source. Rule as the data show it: active = GI50 up to about 1.1 µM and inactive = higher.

Experiments:
Assay in all cases: inhibition of tumour cell growth, NCI panel, 48 h
[1] = tested on: OVCAR-8
[2] = tested on: RPMI-8226
[3] = tested on: SK-MEL-5
[4] = tested on: HOP-92
[5] = tested on: Malme-3M
[6] = tested on: SK-MEL-28
[7] = tested on: EKVX
[8] = tested on: OVCAR-4
[9] = tested on: SNB-19
[10] = tested on: SF-539
[11] = tested on: HT-29
[12] = tested on: COLO 205
[13] = tested on: UACC-62
[14] = tested on: CAKI-1
[15] = tested on: NCI-H23
[16] = tested on: TK-10
[17] = tested on: MCF7
[18] = tested on: MDA-MB-231
[19] = tested on: HL-60
[20] = tested on: HCC 2998

Structure (SMILES)	GI50 [1]	GI50 [2]	GI50 [3]	GI50 [4]	GI50 [5]	GI50 [6]	GI50 [7]	GI50 [8]	GI50 [9]	GI50 [10]	GI50 [11]	GI50 [12]	GI50 [13]	GI50 [14]	GI50 [15]	GI50 [16]	GI50 [17]	GI50 [18]	GI50 [19]	GI50 [20]
O=P(O)(O)CN1CCNCCN(CP(=O)(O)O)CCN(CP(=O)(O)O)CCNCC1	83400 µM (inactive)	> 100 µM (inactive)	77300 µM (inactive)	> 100 µM (inactive)	0.296 µM (active)	> 100 µM (inactive)	> 100 µM (inactive)	> 100 µM (inactive)	> 100 µM (inactive)	> 100 µM (inactive)	31.3 µM (inactive)	44200 µM (inactive)	> 100 µM (inactive)	22500 µM (inactive)	> 100000 µM (inactive)	> 100 µM (inactive)	> 100 µM (inactive)	> 100 µM (inactive)	1.73 µM (inactive)	–
COC(=O)c1ccc(C)cc1/C=C1\Cc2ccc(C)cc2C1=O	21.2 µM (inactive)	11.8 µM (inactive)	13.9 µM (inactive)	15.5 µM (inactive)	10.2 µM (inactive)	16.6 µM (inactive)	26.2 µM (inactive)	14.4 µM (inactive)	17.2 µM (inactive)	12.4 µM (inactive)	4.73 µM (inactive)	8.63 µM (inactive)	11.4 µM (inactive)	26.3 µM (inactive)	23.9 µM (inactive)	21.1 µM (inactive)	11.2 µM (inactive)	–	4.78 µM (inactive)	19.7 µM (inactive)
COc1ccc(C2N(c3ccc(F)cc3)C(=O)N3C(c4ccc(OC)cc4)N(c4ccc(F)cc4)C(=O)N23)cc1 (stereo not drawn)	> 100 µM (inactive)	> 100 µM (inactive)	> 100 µM (inactive)	> 100 µM (inactive)	> 100 µM (inactive)	> 100 µM (inactive)	> 100 µM (inactive)	> 100 µM (inactive)	> 100 µM (inactive)	> 100 µM (inactive)	> 100 µM (inactive)	> 100 µM (inactive)	> 100 µM (inactive)	> 100 µM (inactive)	> 100 µM (inactive)	> 100 µM (inactive)	–	> 100 µM (inactive)	> 100 µM (inactive)	–
O=c1oc2c3ccc4ccccc4c3n(CCN3CCCCC3)c2c2ccccc12	19 µM (inactive)	> 100 µM (inactive)	40.7 µM (inactive)	> 100 µM (inactive)	30.3 µM (inactive)	> 71.6 µM (inactive)	> 87.5 µM (inactive)	23.8 µM (inactive)	28.8 µM (inactive)	17.1 µM (inactive)	10.1 µM (inactive)	14.8 µM (inactive)	36.3 µM (inactive)	48.2 µM (inactive)	21.4 µM (inactive)	37.2 µM (inactive)	–	–	89.5 µM (inactive)	80.5 µM (inactive)
CCN(CC)C(=O)c1cc([N+](=O)[O-])c(=O)n2c1[nH]c1ccccc12	> 100 µM (inactive)	> 100 µM (inactive)	> 100 µM (inactive)	> 100 µM (inactive)	> 100 µM (inactive)	> 100 µM (inactive)	> 100 µM (inactive)	> 100 µM (inactive)	> 100 µM (inactive)	> 100 µM (inactive)	> 100 µM (inactive)	> 100 µM (inactive)	> 100 µM (inactive)	> 100 µM (inactive)	> 100 µM (inactive)	> 100 µM (inactive)	–	> 100 µM (inactive)	> 100 µM (inactive)	> 100 µM (inactive)
Cc1ccc(/N=N/c2c(O)c(C(=O)O)cc3ccccc23)c(S(=O)(=O)O)c1	> 100 µM (inactive)	> 100 µM (inactive)	> 100 µM (inactive)	97.1 µM (inactive)	> 100 µM (inactive)	> 100 µM (inactive)	> 100 µM (inactive)	> 100 µM (inactive)	> 100 µM (inactive)	–	> 100 µM (inactive)	> 100 µM (inactive)	> 100 µM (inactive)	> 100 µM (inactive)	> 100 µM (inactive)	> 100 µM (inactive)	–	> 100 µM (inactive)	–	–
Cc1cc(C)c(N[S+]([O-])c2cccc(C(F)(F)F)c2)c(C)c1 (stereo not drawn)	> 100 µM (inactive)	> 100 µM (inactive)	–	> 100 µM (inactive)	> 100 µM (inactive)	> 100 µM (inactive)	–	–	> 100 µM (inactive)	> 100 µM (inactive)	> 100 µM (inactive)	> 100 µM (inactive)	–	–	> 100 µM (inactive)	> 100 µM (inactive)	> 100 µM (inactive)	–	> 100 µM (inactive)	–
O=C1NN=C(c2c[nH]c3ccccc23)CC1NCc1ccccc1 (stereo not drawn)	> 100 µM (inactive)	> 100 µM (inactive)	> 100 µM (inactive)	> 100 µM (inactive)	> 100 µM (inactive)	> 100 µM (inactive)	–	–	> 100 µM (inactive)	> 100 µM (inactive)	> 100 µM (inactive)	> 100 µM (inactive)	> 100 µM (inactive)	> 100 µM (inactive)	> 100 µM (inactive)	> 100 µM (inactive)	–	> 100 µM (inactive)	> 100 µM (inactive)	–
O=[N+]([O-])c1cccc(-c2cn3c(n2)Cc2ccccc2C3)c1	99.1 µM (inactive)	–	28.6 µM (inactive)	> 100 µM (inactive)	> 100 µM (inactive)	> 100 µM (inactive)	90.2 µM (inactive)	> 100 µM (inactive)	> 100 µM (inactive)	57.4 µM (inactive)	12.3 µM (inactive)	45.5 µM (inactive)	53 µM (inactive)	15.6 µM (inactive)	59.6 µM (inactive)	> 100 µM (inactive)	3.88 µM (inactive)	18.8 µM (inactive)	> 100 µM (inactive)	–
COc1ccc(O)c(/C=N/CCC/N=C/c2cc(OC)ccc2O)c1	15.7 µM (inactive)	11.7 µM (inactive)	–	20.2 µM (inactive)	13.7 µM (inactive)	46.2 µM (inactive)	20.2 µM (inactive)	21.8 µM (inactive)	21.6 µM (inactive)	–	37.5 µM (inactive)	–	33.1 µM (inactive)	–	43.5 µM (inactive)	34.9 µM (inactive)	20.9 µM (inactive)	31.3 µM (inactive)	1.21 µM (inactive)	–
O=C(CN1c2ccccc2Sc2ccccc21)n1cnc2ccccc21	72.6 µM (inactive)	90.4 µM (inactive)	56.9 µM (inactive)	30.6 µM (inactive)	74.8 µM (inactive)	> 100 µM (inactive)	> 100 µM (inactive)	69 µM (inactive)	> 100 µM (inactive)	> 100 µM (inactive)	73.6 µM (inactive)	92.3 µM (inactive)	> 100 µM (inactive)	–	77.3 µM (inactive)	> 100 µM (inactive)	> 100 µM (inactive)	53.2 µM (inactive)	89.3 µM (inactive)	–
Cc1oc2nc(N(C)C)nc(Cl)c2c1C	> 100 µM (inactive)	> 100 µM (inactive)	> 100 µM (inactive)	25.2 µM (inactive)	–	> 100 µM (inactive)	34.8 µM (inactive)	32.1 µM (inactive)	> 100 µM (inactive)	> 100 µM (inactive)	> 100 µM (inactive)	> 100 µM (inactive)	> 100 µM (inactive)	49.4 µM (inactive)	> 100 µM (inactive)	> 100 µM (inactive)	–	> 100 µM (inactive)	> 100 µM (inactive)	> 100 µM (inactive)
CS(=O)(=O)CCC(N)P(=O)(O)O (stereo not drawn)	> 100 µM (inactive)	> 100 µM (inactive)	> 100 µM (inactive)	> 100 µM (inactive)	> 100 µM (inactive)	> 100 µM (inactive)	> 100 µM (inactive)	> 100 µM (inactive)	> 100 µM (inactive)	–	> 100 µM (inactive)	> 100 µM (inactive)	> 100 µM (inactive)	> 100 µM (inactive)	> 100 µM (inactive)	> 100 µM (inactive)	> 100 µM (inactive)	–	> 100 µM (inactive)	–
Cc1ccc(S(=O)OC2c3ccccc3Cc3ccccc32)cc1 (stereo not drawn)	15.6 µM (inactive)	36.1 µM (inactive)	19.3 µM (inactive)	17.2 µM (inactive)	13.1 µM (inactive)	19.2 µM (inactive)	18.6 µM (inactive)	17.8 µM (inactive)	23.8 µM (inactive)	18.5 µM (inactive)	32.1 µM (inactive)	17.5 µM (inactive)	17.7 µM (inactive)	17.3 µM (inactive)	18.6 µM (inactive)	21.1 µM (inactive)	–	–	17.6 µM (inactive)	19.1 µM (inactive)
CC[C@](C)(O)C(=O)O[C@H]1C(=O)O[C@@H]2C[C@H]3C(C)=CC(=O)[C@@H](O)[C@]3(C)[C@H]3[C@@]4(O)OC[C@]32[C@@H]1[C@@H](C)[C@H]4O [GLAUCARUBINONE]	0.0753 µM (active)	0.0548 µM (active)	0.0442 µM (active)	0.049 µM (active)	–	0.05 µM (active)	0.0545 µM (active)	0.321 µM (active)	0.0933 µM (active)	0.05 µM (active)	–	0.815 µM (active)	0.051 µM (active)	–	0.0796 µM (active)	0.39 µM (active)	–	0.946 µM (active)	0.05 µM (active)	0.0679 µM (active)
CCC1OC2(C)CC(C#N)(C#N)C1(C#N)C(=N)O2 (stereo not drawn)	–	–	> 100 µM (inactive)	> 100 µM (inactive)	> 100 µM (inactive)	> 100 µM (inactive)	> 100 µM (inactive)	–	> 100 µM (inactive)	> 100 µM (inactive)	–	> 100 µM (inactive)	> 100 µM (inactive)	> 100 µM (inactive)	> 100 µM (inactive)	> 100 µM (inactive)	> 100 µM (inactive)	> 100 µM (inactive)	> 100 µM (inactive)	–
